# In PubChem BioAssay (NCI):
# Where “and” joins values, the source holds several entries; their conditions need not be identical. Equal entries are not always repeated.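 Briefly, cells in 96-well plates were exposed to five compound concentrations for 48 h, and endpoints were estimated by linear interpolation. Abbreviation: GI50, concentration required for 50% inhibition of growth. TGI: concentration producing complete growth inhibition.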
# Experiments:
# Experiment in all cases: NCI-60 cell line screen, 48 h
# DMS 114 small cell lung = test system: DMS 114 small cell lung
# SW-620 colon = test system: SW-620 colon
# SF-295 CNS = test system: SF-295 CNS
# RXF 393 renal = test system: RXF 393 renal
# HCT-15 colon = test system: HCT-15 colon
# SK-OV-3 ovarian = test system: SK-OV-3 ovarian
# DLD-1 colon = test system: DLD-1 colon
# SK-MEL-2 melanoma = test system: SK-MEL-2 melanoma
# T-47D breast = test system: T-47D breast
# MCF7 breast = test system: MCF7 breast
SMILES,TGI (DMS 114 small cell lung),TGI (SW-620 colon),TGI (SF-295 CNS),TGI (RXF 393 renal),TGI (HCT-15 colon),TGI (SK-OV-3 ovarian),TGI (DLD-1 colon),TGI (SK-MEL-2 melanoma),GI50 (DMS 114 small cell lung) [µg/mL],GI50 (SW-620 colon),GI50 (SF-295 CNS),GI50 (T-47D breast) [µg/mL],TGI (T-47D breast),GI50 (RXF 393 renal),GI50 (HCT-15 colon),GI50 (SK-OV-3 ovarian),GI50 (DLD-1 colon) [µg/mL],GI50 (MCF7 breast),TGI (MCF7 breast),GI50 (SK-MEL-2 melanoma)
COC(=O)NC(=O)c1cn(C2CCCCC2)c(=O)[nH]c1=O,> 100 µM,> 100 µM,> 100 µM,> 100 µM,> 100 µM,> 100 µM,> 100 µM,> 100 µM,–,–,–,–,–,–,–,–,–,–,–,–
CCCCCCCCCCCC(=O)OC(COC(N)=O)COc1ccc(Cl)cc1 (stereo not drawn),33.1 µM,63 µM,40 µM,43.9 µM,91.3 µM,> 100 µM,> 100 µM,74.4 µM,–,–,–,–,–,–,–,–,–,–,–,–
CCc1ccc([O-])c(C=NCCCN(C)CCCN=Cc2cc(C)ccc2[O-])c1.[Co+3].[N-]=[N+]=[N-],> 150 µg/mL,50 µg/mL and > 150 µg/mL,50 µg/mL and 48.1 µg/mL,35.5 µg/mL and 46 µg/mL,50 µg/mL and > 150 µg/mL,50 µg/mL and 85.9 µg/mL,> 150 µg/mL,50 µg/mL and 135 µg/mL,136,50 µg/mL and > 150 µg/mL,28.1 µg/mL and 16.9 µg/mL,40,50 µg/mL,5.76 µg/mL and 20.4 µg/mL,29.5 µg/mL and 35.9 µg/mL,12.9 µg/mL and 37.3 µg/mL,61,50 µg/mL and > 150 µg/mL,50 µg/mL and > 150 µg/mL,50 µg/mL and 44.7 µg/mL
NC(=O)c1cc([N+](=O)[O-])cc([N+](=O)[O-])c1,> 100 µM,> 100 µM,> 100 µM,> 100 µM,> 100 µM,> 100 µM,> 100 µM,> 100 µM,–,–,–,–,–,–,–,–,–,–,–,–
ClCCCCOC1CCCCO1 (stereo not drawn),> 100 µM,> 100 µM,> 100 µM,> 100 µM,> 100 µM,> 100 µM,> 100 µM,> 100 µM,–,–,–,–,–,–,–,–,–,–,–,–
O=C1c2ccccc2C(=O)c2c1ccc1c2N=C(c2ccc(Br)cc2)CC(c2cccc3ccccc23)N1 (stereo not drawn),> 100 µM,> 100 µM,> 100 µM,> 100 µM,> 100 µM,> 100 µM,> 100 µM,> 100 µM,–,–,–,–,–,–,–,–,–,–,–,–
CCCCC(C(=O)CCC(=O)Nc1ccc(Cl)cc1)C(=O)C(C)C (stereo not drawn),> 100 µM,> 100 µM,> 100 µM,> 100 µM,> 100 µM,> 100 µM,> 100 µM,> 100 µM,–,–,–,–,–,–,–,–,–,–,–,–
O=C1C(Br)=CC2(C=C1Br)CCNc1c(O)c3c4c(c12)=NCCC=4C=N3,0.101 µM,0.105 µM,2.56 µM,0.217 µM,0.197 µM,4.26 µM,0.0798 µM,0.428 µM,–,–,–,–,0.165 µM,–,–,–,–,–,0.0745 µM,–
CN1CCc2cc3c4cc2C1Cc1ccc(cc1)Oc1cc(ccc1O)CC1c2c(cc(O)c(c2O4)O3)CCN1C (stereo not drawn),4.58 µM,7.46 µM,3.11 µM,13.2 µM,4.27 µM,9 µM,14.8 µM,3.18 µM,–,–,–,–,–,–,–,–,–,–,–,–
c1ccc2c(c1)N=C(c1ccc3ccccc3c1)CC(c1cccc3ccccc13)S2 (stereo not drawn),> 100 µM,> 100 µM,> 100 µM,> 100 µM,> 100 µM,> 100 µM,> 100 µM,> 100 µM,–,–,–,–,–,–,–,–,–,–,–,–
Nc1ccc(C(=O)Nc2ccccc2N)cc1,> 100 µM,> 100 µM,> 100 µM,> 100 µM,> 100 µM,> 100 µM,> 100 µM,> 86.1 µM,–,–,–,–,–,–,–,–,–,–,> 100 µM,–
